pIC50: −log10 of the molar value.
Assays:
APE1 [1] = target: T1, APE1 (Homo sapiens, UniProt P27695); assay: Fluorescence polarization (FP) displacement assay of APE1 binding to AP-DNA probe; conditions: read-out: FP IC50;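 further: TAMRA 5′-labeled duplex DNA with THF abasic site (5 nM) and APE1 (20 nM), Mg2+-free buffer, 15 min at room temperature, inhibition seen as lowered polarization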
T1 construct: made in house
Method: Double-stranded oligodeoxynucleotide containing tetrahydrofuran (THF) abasic site labeled with TAMRA at the 5′-end was used as the labeled binding probe. Inhibition of APE1 binding to labeled probe was detected by a decrease in the fluorescence polarization (FP) of the fluorophore. Briefly, 4 µL mixture of 20 nM APE1 and 5 nM probe contained in the enzymatic assay buffer from which Mg^2+ was omitted, was dispensed into 1536-well Greiner black solid bottom plates. Compounds (23 nL) were transferred via pintool, and after a 15-minute incubation at room temperature, fluorescence polarization was measured in a ViewLux High-throughput CCD imager (480 nm excitation and 540 nm emission) to determine the degree of probe displacement caused by the test compounds.

E. coli Endo IV = target: T2, E. coli Endo IV (Escherichia coli, UniProt P0A6C1); assay: E. coli Endo IV profiling counterscreen; format: biochemical; conditions: read-out: EndoIV IC50;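 further: selectivity counterscreen of candidate APE1 inhibitors against the bacterial endonuclease Endo IV, run in the same assay format as the primary APE1 high-throughput screen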
T2 construct: made in house
From the text: (§1) In order to screen out nonselective compounds, such as non-specific DNA binders and inhibitors of related enzymes, we used a miniaturized ThO DNA displacement assay and a counterscreen against the bacterial endonuclease E. coli Endo IV, respectively, following the previously published protocols [21].
To probe the selectivity of the candidate APE1 inhibitors, we tested them against E. coli EndoIV [36], employing the same assay as used in the HTS.

APE1 [2] = target: T1, APE1; assay: Gel-based APE1 incision assay with fluorescence (TAMRA) detection; format: biochemical
[3] = target: double-stranded 17-mer DNA fragment; assay: ThO (Thiazole Orange) DNA displacement assay; format: binding; conditions: read-out: ThO-DNA binding IC50;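 further: miniaturized displacement of the intercalating dye from unlabeled duplex DNA, used to flag nonspecific DNA binders, chiefly intercalators, groove binders may be missed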
From the text: The double-stranded 17-mer DNA fragment used in the ThO DNA binding assay was of the same sequence as the fluorogenic HTS substrate but carried no dye labels.
as §1
To detect screening hits that inhibit APE1 activity through non-specific DNA interactions, we employed a previously established miniaturized ThO dye displacement assay [21]. […] We note that the ThO assay reports primarily on DNA binders acting through intercalation, while potentially missing other types of DNA binders, such as those acting through the minor groove.

APE1 [4] = target: T1, APE1; assay: Fluorogenic kinetic qHTS APE1 incision assay (primary screen and retest of cherrypicked samples); format: biochemical;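 further: purified APE1 cleaving a fluorophore/dark-quencher labelled 17-mer duplex DNA bearing a tetrahydrofuran AP site, fluorescence rise followed kinetically over the first 2 min, inhibition normalized to controls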
APE1 [5] = target: T1, APE1; assay: Gel-based radiotracer (32P) APE1 incision assay; format: biochemical; design: concentration or dose not given beside the values; conditions: percent incision shown; entries 1-112;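 further: APE1 incision reactions ran 5 min at 37 °C, with cleaved product and intact substrate resolved electrophoretically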
[6] = estimated IC50, fluorophore detection, entries 113-223, read-out: F-PAGE Assay IC50
[7] = initial quantitative high-throughput screen, read-out: APE1 qHTS IC50
[8] = retest of cherrypicked sample, read-out: APE1 Retest IC50
[9] = entries 113-223: fluorophore detection, estimated IC50, read-out: Gel-based electrophoretic separation assay with fluorophore detection, estimated IC50 (column headed Radiotracer Assay (%Activity))

T1 sequence (P27695 whole entry): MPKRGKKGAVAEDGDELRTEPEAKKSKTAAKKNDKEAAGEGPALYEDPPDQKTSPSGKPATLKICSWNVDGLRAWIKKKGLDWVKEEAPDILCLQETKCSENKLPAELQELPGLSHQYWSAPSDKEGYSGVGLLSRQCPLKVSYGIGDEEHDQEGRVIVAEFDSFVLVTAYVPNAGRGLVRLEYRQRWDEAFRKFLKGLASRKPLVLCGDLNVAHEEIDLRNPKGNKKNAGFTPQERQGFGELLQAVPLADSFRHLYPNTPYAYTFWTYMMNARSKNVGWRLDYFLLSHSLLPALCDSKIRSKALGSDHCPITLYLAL

O=C(C[C@@H]1C/C=C\C[C@H](Cc2ccc(F)cc2)C(=O)OC[C@@H](Cc2c[nH]c3ccccc23)NC1=O)NCCO [MLS002320105]
pIC50 (APE1 [1]): < 4.24 | pIC50 (E. coli Endo IV): < 4.24 | pIC50 (APE1 [2]; [6]): 5.25 | pIC50 [3]: < 4.24 | pIC50 (APE1 [4]; [7]): 4.92

O=C(Nc1ccc2oc(-c3ccccc3F)nc2c1)c1ccc([N+](=O)[O-])o1 [MLS001194759]
pIC50 (APE1 [1]): < 4.24 | pIC50 (E. coli Endo IV): < 4.24 | pIC50 (APE1 [2]; [6]): 5.60 | pIC50 [3]: 4.99 | pIC50 (APE1 [4]; [7]): 5.57 | pIC50 (APE1 [4]; [8]): 5.49

Nc1c(S(=O)(=O)O)cc(NC(=O)c2ccccc2)c2c1C(=O)c1ccccc1C2=O [MLS001194971]
pIC50 (APE1 [1]): < 4.24 | pIC50 (E. coli Endo IV): < 4.24 | pIC50 (APE1 [2]; [6]): 5.10 | pIC50 [3]: < 4.24 | pIC50 (APE1 [4]; [7]): 4.67 | pIC50 (APE1 [4]; [8]): 4.74

CC1=C(C(=O)OC(C)C)C(c2ccc(Cl)cc2)n2c(s/c(=C\c3ccc(OCC(=O)O)cc3)c2=O)=N1 (stereo not drawn) [MLS001178474]
pIC50 (APE1 [1]): < 4.24 | pIC50 (E. coli Endo IV): < 4.24 | pIC50 (APE1 [2]; [6]): 5.85 | pIC50 [3]: 4.99 | pIC50 (APE1 [4]; [7]): 5.17 | pIC50 (APE1 [4]; [8]): 5.29

CCOC(=O)C1=C(C)N=c2s/c(=C\c3ccc(OCC(=O)O)cc3)c(=O)n2C1c1ccc(Cl)cc1 (stereo not drawn) [MLS001178472]
pIC50 (APE1 [1]): < 4.24 | pIC50 (E. coli Endo IV): < 4.24 | pIC50 (APE1 [2]; [9]): 4.95 | pIC50 [3]: < 4.24 | pIC50 (APE1 [4]; [7]): 4.97 | pIC50 (APE1 [4]; [8]): 4.84

CCNc1nc(NCC)n2c(SCC(=O)Nc3cccc(F)c3)nnc2n1 [MLS001234358]
pIC50 (APE1 [1]): 4.74 | pIC50 (E. coli Endo IV): 4.44 | pIC50 (APE1 [2]; [9]): 4.95 | pIC50 (APE1 [2]; [6]): 5.30 | pIC50 [3]: < 4.24 | pIC50 (APE1 [4]; [7]): 4.92 | pIC50 (APE1 [4]; [8]): 4.94

COc1ccc(S(=O)(=O)NCCC(=O)NC2CCCCC2C)cc1[N+](=O)[O-] (stereo not drawn) [MLS002251710]
pIC50 (APE1 [1]): 4.69 | pIC50 (E. coli Endo IV): < 4.24 | pIC50 (APE1 [2]; [9]): 4.95 | pIC50 [3]: < 4.24 | pIC50 (APE1 [4]; [7]): 4.57 | pIC50 (APE1 [4]; [8]): 4.79

CC(C)C(C(=O)O)N1C(=O)/C(=C/C=C/c2ccco2)SC1=S (stereo not drawn) [MLS000551672]
pIC50 (APE1 [1]): 4.95 | pIC50 (E. coli Endo IV): < 4.24 | pIC50 [3]: < 4.24 | Radiotracer Assay (%Activity) (APE1 [5]): 19% | pIC50 (APE1 [4]; [7]): 5.80 | pIC50 (APE1 [4]; [8]): 5.60

CCCSC1=N/C(=C\C=C\c2ccco2)C(=O)S1 [MLS000114057]
pIC50 (APE1 [1]): < 4.24 | pIC50 (E. coli Endo IV): < 4.24 | pIC50 [3]: < 4.24 | Radiotracer Assay (%Activity) (APE1 [5]): 40% | pIC50 (APE1 [4]; [7]): 5.40 | pIC50 (APE1 [4]; [8]): 4.75

O=C(CCc1n[nH]c(=O)[nH]c1=O)N/N=C/c1ccco1 [MLS000685551]
pIC50 (APE1 [1]): < 4.24 | pIC50 (E. coli Endo IV): < 4.24 | pIC50 [3]: < 4.24 | Radiotracer Assay (%Activity) (APE1 [5]): 33% | pIC50 (APE1 [4]; [7]): 4.70 | pIC50 (APE1 [4]; [8]): 4.90

O=c1c(O)c(Br)ccc2c(Br)c(O)c(O)c(O)c12 [NCGC00160279]
pIC50 (APE1 [1]): < 4.24 | pIC50 (E. coli Endo IV): < 4.24 | pIC50 [3]: 5.90 | Radiotracer Assay (%Activity) (APE1 [5]): 37.9% | pIC50 (APE1 [4]; [7]): 5.96 | pIC50 (APE1 [4]; [8]): 6.40

Cc1cccc(N2NC(=O)/C(=C/c3ccc(-c4ccc(Cl)c(C(=O)O)c4)o3)C2=O)c1 [MLS000621664]
pIC50 (APE1 [1]): < 4.24 | pIC50 (E. coli Endo IV): < 4.24 | pIC50 [3]: < 4.24 | Radiotracer Assay (%Activity) (APE1 [5]): 32% | pIC50 (APE1 [4]; [7]): 4.75 | pIC50 (APE1 [4]; [8]): 4.90

O=C1CCCC(O)=C1N=Nc1ccc(C(=O)O)cc1 [MLS000759943]
pIC50 (APE1 [1]): < 4.24 | pIC50 (E. coli Endo IV): < 4.24 | pIC50 [3]: < 4.24 | Radiotracer Assay (%Activity) (APE1 [5]): 47% | pIC50 (APE1 [4]; [7]): 5.05 | pIC50 (APE1 [4]; [8]): 5.00

CC1OC(OCC2OC(Oc3c(-c4ccc(O)cc4)oc4cc(O)cc(O)c4c3=O)C(O)C(O)C2O)C(O)C(O)C1O (stereo not drawn) [MLS000876823]
pIC50 (APE1 [1]): < 4.24 | pIC50 (E. coli Endo IV): < 4.24 | pIC50 [3]: < 4.24 | Radiotracer Assay (%Activity) (APE1 [5]): 30% | pIC50 (APE1 [4]; [7]): 5.46 | pIC50 (APE1 [4]; [8]): 5.51

O=C(O)C[C@@H]1C(=O)O[C@@H]2C(COC(=O)c3cc(O)c(O)c(O)c3)O[C@@H](OC(=O)c3cc(O)c(O)c(O)c3)[C@@H](OC(=O)c3cc(O)c(O)c4c3[C@H]1[C@H](O)C(=O)O4)[C@H]2OC(=O)c1cc(O)c(O)c(O)c1 (stereo partly drawn) [MLS000697665]
pIC50 (APE1 [1]): 4.85 | pIC50 (E. coli Endo IV): < 4.24 | pIC50 [3]: 6.40 | Radiotracer Assay (%Activity) (APE1 [5]): 29% | pIC50 (APE1 [4]; [7]): 8.00 | pIC50 (APE1 [4]; [8]): 8.00

O=C(OCC1O[C@@H](OC(=O)c2cc(O)c(O)c(O)c2)[C@@H](OC(=O)c2cc(O)c(O)c(O)c2)[C@@H](OC(=O)c2cc(O)c(O)c(O)c2)[C@@H]1OC(=O)c1cc(O)c(O)c(O)c1)c1cc(O)c(O)c(O)c1 (stereo partly drawn) [MLS000574902]
pIC50 (APE1 [1]): < 4.24 | pIC50 (E. coli Endo IV): < 4.24 | pIC50 [3]: 5.40 | Radiotracer Assay (%Activity) (APE1 [5]): 8% | pIC50 (APE1 [4]; [7]): 8.00 | pIC50 (APE1 [4]; [8]): 8.22

Cc1c(O)cc2c(c1O)C(=O)CC(c1ccc(O)cc1)O2 (stereo not drawn) [MLS000876957]
pIC50 (APE1 [1]): < 4.24 | pIC50 (E. coli Endo IV): < 4.24 | pIC50 [3]: < 4.24 | Radiotracer Assay (%Activity) (APE1 [5]): 44% | pIC50 (APE1 [4]; [7]): 5.80 | pIC50 (APE1 [4]; [8]): 5.35

CCOC(=O)C1CCN(/C=C2/C(=O)NC(=O)N(Cc3ccco3)C2=O)CC1 [MLS000113273]
pIC50 (APE1 [1]): < 4.24 | pIC50 (E. coli Endo IV): < 4.24 | pIC50 [3]: < 4.24 | Radiotracer Assay (%Activity) (APE1 [5]): 3% | pIC50 (APE1 [4]; [7]): 4.85 | pIC50 (APE1 [4]; [8]): 5.49

From paper PMC3479139, “Diverse Small Molecule Inhibitors of Human Apurinic/Apyrimidinic Endonuclease APE1 Identified from a Screen of a Large Public Collection” (PLoS ONE, 2012)
